pEC50, pIC50: −log10 of the molar value.
Key:
HeLa = test: Antiproliferative activity against human HeLa cells after 48 hrs by MTS assay; assay type: functional, cell-based
[1] = Cell cycle arrest in human H1299 cells assessed as accumulation at G2/M phase by FACS; assay type: functional, cell-based; details: NCI-H1299
[2] = target: T1, Serine/threonine-protein kinase Chk1 (Homo sapiens, UniProt O14757); test: Inhibition of recombinant Chk1
T1 sequence (O14757 whole entry): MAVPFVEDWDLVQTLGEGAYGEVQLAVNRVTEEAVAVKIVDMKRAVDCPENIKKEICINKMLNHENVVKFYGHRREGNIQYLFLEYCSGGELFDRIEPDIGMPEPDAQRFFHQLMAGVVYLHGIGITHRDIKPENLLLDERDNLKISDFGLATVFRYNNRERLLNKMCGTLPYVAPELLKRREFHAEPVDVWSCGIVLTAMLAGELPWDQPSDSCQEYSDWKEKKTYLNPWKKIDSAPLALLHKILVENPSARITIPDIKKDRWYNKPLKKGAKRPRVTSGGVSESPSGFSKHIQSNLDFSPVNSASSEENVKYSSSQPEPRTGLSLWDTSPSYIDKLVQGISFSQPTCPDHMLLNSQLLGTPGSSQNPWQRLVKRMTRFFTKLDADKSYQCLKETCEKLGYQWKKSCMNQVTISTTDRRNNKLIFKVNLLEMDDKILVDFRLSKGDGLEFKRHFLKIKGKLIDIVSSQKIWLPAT

[3] = target: T1, Serine/threonine-protein kinase Chk1; test: Inhibition of human Chk1 in H1299 cells assessed as blockade of Cdc25A degradation; assay type: cell-based

Row | SMILES | pEC50 (HeLa) | pEC50 [1] | pIC50 [2] | pEC50 [3]
1 | COC(=O)c1cc2c(cc1OC)Nc1cc(-c3ccc([N+](=O)[O-])c(OC)c3)ccc1C(=O)N2 | < 4.23 | < 5.00 | 7.95 | < 5.00
2 | COc1cc2c(cc1O)Nc1cc(-c3ccc([N+](=O)[O-])c(OC)c3)ccc1C(=O)N2 | < 4.23 | < 5.00 | 9.05 | 7.15
3 | COc1cc2c(cc1CC(C)(C)O)Nc1cc(-c3ccc([N+](=O)[O-])c(OC)c3)ccc1C(=O)N2 | < 4.23 | 5.74 | 8.47 | 7.40
4 | COc1cc2c(cc1CCC(C)(C)O)Nc1cc(-c3ccc([N+](=O)[O-])c(OC)c3)ccc1C(=O)N2 | < 4.23 | < 5.00 | 8.40 | 6.22
5 | COc1cc2c(cc1OCc1csc(C)n1)Nc1cc(-c3ccc([N+](=O)[O-])c(OC)c3)ccc1C(=O)N2 | < 4.23 | < 5.00 | 8.40 | < 5.00
6 | COc1cc2c(cc1OCc1ccncc1)Nc1cc(-c3ccc([N+](=O)[O-])c(OC)c3)ccc1C(=O)N2 | < 4.23 | < 5.00 | 8.17 | 7.30
7 | COC(=O)CCc1cc2c(cc1OC)NC(=O)c1ccc(-c3ccc([N+](=O)[O-])c(OC)c3)cc1N2 | < 4.23 | < 5.00 | 7.66 | < 5.00
8 | COc1cc2c(cc1OCCCCO)Nc1cc(-c3ccc([N+](=O)[O-])c(OC)c3)ccc1C(=O)N2 | < 4.23 | < 5.00 | 9.15 | 5.70
9 | COc1cc2c(cc1CCC(=O)N(C)C)Nc1cc(-c3ccc([N+](=O)[O-])c(OC)c3)ccc1C(=O)N2 | < 4.23 | < 5.00 | 8.10 | 7.30
10 | COc1cc2c(cc1CCCO)Nc1cc(-c3ccc([N+](=O)[O-])c(OC)c3)ccc1C(=O)N2 | < 4.23 | < 5.00 | 8.59 | 5.82

Continued, values first:

Row | pEC50 (HeLa) | pEC50 [1] | pIC50 [2] | pEC50 [3] | SMILES
11 | < 4.23 | < 5.00 | 5.98 |  | COc1cc2c(cc1OCc1ccccc1C(F)(F)F)Nc1cc(-c3ccc([N+](=O)[O-])c(OC)c3)ccc1C(=O)N2
12 | < 4.23 | < 5.00 | 8.46 | 6.05 | COc1cc2c(cc1CCO)Nc1cc(-c3ccc([N+](=O)[O-])c(OC)c3)ccc1C(=O)N2
13 | 5.02 | < 5.00 | 7.79 | 5.68 | COc1cc2c(cc1CCc1ccncc1)Nc1cc(-c3ccc([N+](=O)[O-])c(OC)c3)ccc1C(=O)N2
14 | 5.35 | < 5.00 | 8.05 | 6.46 | CCc1cc2c(cc1OC)Nc1cc(-c3ccc([N+](=O)[O-])c(OC)c3)ccc1C(=O)N2
15 | < 4.23 | < 5.00 | 9.24 | 5.51 | COc1cc2c(cc1OCCO)Nc1cc(-c3ccc([N+](=O)[O-])c(OC)c3)ccc1C(=O)N2
16 | 4.28 | < 5.00 | 8.51 | 5.51 | COCCOCCOc1cc2c(cc1OC)NC(=O)c1ccc(-c3ccc([N+](=O)[O-])c(OC)c3)cc1N2
17 | 5.70 | 5.62 | 8.09 | 6.70 | COc1cc2c(cc1OCCN1CCOCC1)Nc1cc(-c3ccc([N+](=O)[O-])c(OC)c3)ccc1C(=O)N2
18 | < 4.23 | < 5.00 | 9.22 | 6.55 | COc1cc2c(cc1OC)Nc1cc(-c3ccc([N+](=O)[O-])c(OC)c3)ccc1C(=O)N2
19 | 4.35 | < 5.00 | 7.81 | 5.46 | COc1cc2c(cc1C(=O)N(C)C)NC(=O)c1ccc(-c3ccc([N+](=O)[O-])c(OC)c3)cc1N2
20 | 5.70 | 5.62 | 8.32 | 6.70 | COc1cc2c(cc1OCC1CCCCO1)Nc1cc(-c3ccc([N+](=O)[O-])c(OC)c3)ccc1C(=O)N2 (stereo not drawn)
21 | 4.66 | 5.37 | 8.72 | 6.66 | COc1cc2c(cc1CCCO)NC(=O)c1ccc(-c3ccc([N+](=O)[O-])c(OC)c3)cc1N2
22 | 4.32 |  |  |  | COc1cc(-c2ccc3c(c2)Nc2ccccc2NC3=O)ccc1[N+](=O)[O-]
23 | 4.76 | < 5.00 | 9.01 | 5.59 | COc1cc2c(cc1OCCCN)Nc1cc(-c3ccc([N+](=O)[O-])c(OC)c3)ccc1C(=O)N2

— ChEMBL document CHEMBL1143927, “Investigation of novel 7,8-disubstituted-5,10-dihydro-dibenzo[b,e][1,4]diazepin-11-ones as potent Chk1 inhibitors” (Bioorg Med Chem Lett, 2008)
